Here are results for 36 compounds from ChEMBL document CHEMBL2375219, “Discovery of new potential hits of Plasmodium falciparum enoyl-ACP reductase through ligand- and structure-based drug design approaches” (Bioorg Med Chem Lett, 2013).

The test in a line: Inhibition of Plasmodium falciparum enoyl-ACP reductase expressed in Escherichia coli BL21(DE3) assessed as inhibition of crotonyl-CoA reduction to butyryl-CoA by UV-Vis spectrophotometric analysis.
For the compound `O=C1/C(=C/c2cccc(O)c2)SC(=S)N1c1ccccc1`, the pIC50 was determined as 5.066. As to `O=C1/C(=C/c2ccc(Cl)c([N+](=O)[O-])c2)SC(=S)N1c1cccc(Cl)c1`, the pIC50 is recorded as 4.73. Under `O=C(O)c1ccc(/C=C2\SC(=S)N(c3ccc(O)cc3)C2=O)cc1` stands 5.056; under `O=C(O)c1ccc(/C=C2\SC(=S)N(c3ccccc3)C2=O)cc1`, 5.041.

Turning to `COc1cccc(N2C(=O)/C(=C/c3ccc(C(=O)O)cc3)SC2=S)c1`, the pIC50 is 5.009. Under `COc1cc(/C=C2\SC(=S)N(c3ccc([N+](=O)[O-])cc3)C2=O)cc(Cl)c1O` stands 5.004; under `O=C1/C(=C/c2cc(O)c(O)c(Br)c2)SC(=S)N1c1cccc(C(F)(F)F)c1`, 5.004; under `O=C(O)c1ccccc1/C=C1\SC(=S)N(c2cccc(Cl)c2)C1=O`, 4.921. As to `O=C(O)c1ccccc1/C=C1\SC(=S)N(c2ccc(F)cc2)C1=O`, the pIC50 is 4.573. `Cc1ccc(N2C(=O)/C(=C/c3ccc(O)c(O)c3)SC2=S)c(C)c1`: the pIC50 is recorded as 6.301. Under `O=C1/C(=C/c2ccc(O)c(O)c2)SC(=S)N1c1ccc(Cl)cc1` stands 5.102; under `COc1ccc(N2C(=O)/C(=C/c3ccc(OC)c(O)c3)SC2=S)cc1`, 5.004. Under `COc1cccc(N2C(=O)/C(=C/c3cccc(O)c3)SC2=S)c1` stands 5.041; under `COC(=O)c1ccc(N2C(=O)/C(=C/c3cccc(OC)c3)SC2=S)cc1`, 4.565; under `COc1cccc(N2C(=O)/C(=C/c3ccc(O)cc3)SC2=S)c1`, 4.91. Consider `O=C(O)c1ccc(/C=C2\SC(=S)N(c3ccccc3F)C2=O)cc1`, for which the negative logarithm of the IC50 (pIC50) was 4.79.

Regarding `Cc1ccc(N2C(=O)/C(=C/c3ccc(O)c(O)c3)SC2=S)cc1C`, the pIC50 is 6.602. Under `O=C1/C(=C/c2ccc(O)c(O)c2)SC(=S)N1c1cccc(Cl)c1` stands 6.097; under `CCOc1cc(/C=C2\SC(=S)N(c3ccccc3C)C2=O)ccc1O`, 5.022. Turning to `Cc1cccc(N2C(=O)/C(=C/c3ccc(O)c(Br)c3)SC2=S)c1`, the pIC50 came out at 5.009. Under `CCOc1cc(/C=C2\SC(=S)N(c3ccc(Br)cc3)C2=O)ccc1O` stands 4.857; under `COc1ccc(/C=C2\SC(=S)N(c3cccc([N+](=O)[O-])c3)C2=O)cc1Br`, 4.627; under `O=C1/C(=C/c2ccc(O)c([N+](=O)[O-])c2)SC(=S)N1c1cccc2ccccc12`, 4.535. Under `O=C1/C(=C/c2ccc(O)cc2)SC(=S)N1c1ccc([N+](=O)[O-])cc1` stands 5.387; under `CCOc1ccc(N2C(=O)/C(=C/c3ccc(O)cc3)SC2=S)cc1`, 5.081; under `O=C1/C(=C/c2ccc(O)cc2)SC(=S)N1c1cccc(F)c1`, 5.066.

For `O=C1/C(=C/c2ccc(O)cc2)SC(=S)N1c1ccccc1`, the pIC50 amounted to 5.032. For `O=C1/C(=C/c2ccc(O)cc2)SC(=S)N1c1ccc(Br)cc1`, the pIC50 turned out to be 4.955. On to `O=C1/C(=C/c2ccc(O)cc2)SC(=S)N1c1ccc(Cl)cc1`, for which the pIC50 is 4.676. Under `COC(=O)c1ccc(/C=C2\SC(=S)N(c3cccc(O)c3)C2=O)cc1` stands 5.081; under `O=C1/C(=C/c2ccc([N+](=O)[O-])cc2)SC(=S)N1c1cccc(C(F)(F)F)c1`, 4.896; under `COc1ccc(/C=C2\SC(=S)N(c3cccc(OC)c3)C2=O)cc1`, 4.879. As for `O=C1/C(=C/c2ccc([N+](=O)[O-])cc2)SC(=S)N1c1ccc(F)cc1`, the pIC50 is given as 4.833. Under `CCOC(=O)c1ccc(/C=C2\SC(=S)N(c3cccc(Cl)c3)C2=O)cc1` stands 4.724; under `O=C(O)c1ccc(/C=C2\SC(=S)N(c3cccc(Cl)c3)C2=O)cc1`, 5.06. Under `COc1ccc(/C=C2\SC(=S)N(c3cccc(C(F)(F)F)c3)C2=O)cc1` stands 5.187.
